Data taken from patent publication US12152048B2, “Nitroxoline prodrug and use thereof” (Jiangsu Yahong Meditech Co., Ltd., priority 2018, dated 2024).
In brackets after ≈: the same amount, converted by molar mass.

How the values were obtained:
[1] = Determination of water solubility in phosphate buffer; assay type: physicochemical; details: thermodynamic from solid, 24 hours
How it was run: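 Thermodynamic solubility: compound concentration measured by LC/MS/MS in the vacuum filtrate after 24 h shaking at room temperature of 2 mg powder in 500 μL phosphate buffer at pH 1.2, 4.5, 6.8 or 7.4.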

[2] = Stability in mouse liver microsome; assay type: in vitro ADME; details: 2 μM, 37° C., 30 minutes
[3] = Stability in mouse plasma; assay type: in vitro ADME
Text: (§1) Experimental instruments: thermostatic shaker (SHA-B, Guohua Electric Appliance Co., Ltd.); centrifuge (5810R, Eppendorf); mass spectrometry (AP4000, Applied Biosystems, USA); liquid chromatography (LC-30AD, Shimadzu); sample injector (CTC Analytics AG System, CTC).
(§2) Test animals: plasma of human (batch number: BRH1343165), rat (batch number: RAT336728), mouse (batch number: MSE280000), dog (batch number: BGL99137) and monkey (batch number: PH-Monkey-20180821) are purchased from Shanghai Sixin Biological Technology Co., Ltd.
(§3) Experimental process: the compound of the present invention was dissolved in an organic solvent to obtain a 1 mM working solution. 3 μL of the working solution were added to 597 μL of pre-incubated human or rat plasma and mixed well. 50 μL of the solution were immediately taken out as the 0 minute sample. The remaining sample was incubated at 37° C., and 50 μL of sample were taken out at 15, 30, 60 and 120 minutes respectively. All the samples taken out were immediately processed to precipitate protein, and centrifuged to obtain a supermate for the determination of the compound concentration by LC/MS/MS.

Stability in dog plasma = assay type: in vitro ADME
[4] = Stability in monkey plasma; assay type: in vitro ADME
Text: as §1, §2, §3

[5] = Stability in liver microsome, overall conclusion (species not stated); assay type: in vitro ADME; details: conclusion in words
[6] = Stability in human plasma
[7] = Stability in dog liver microsome; details: 2 μM, 37° C., 30 minutes
[8] = Stability in rat liver microsome; details: 2 μM, 37° C., 30 minutes
Method: (§4) Experimental instruments: thermostatic shaker (SHA-B, Guohua Electric Appliance Co., Ltd.); centrifuge (5810R, Eppendorf); mass spectrometry (API4000, Applied Biosystems, USA); liquid chromatography (LC-30AD, Shimadzu); sample injector (CTC Analytics AG System, CTC).
(§5) Experimental process: 25 μg/mL alamethicin (Aldrich), 5 mM magnesium chloride and 0.5 mg/mL microsome (XENOTECH) were added to 100 mM phosphate buffer to obtain a coenzyme-free reaction solution. A portion of the coenzyme-free reaction solution was added with 1 mM reductive nicotinamide adenine dinucleotide phosphate (Aldrich) and 5 mM uridine diphosphate glucuronic acid (Aldrich) to obtain a coenzyme-containing reaction solution. The working solution of the compound of the present invention was added to the two reaction solutions so that the final concentration of the compound was 2 μM. Immediately after mixing well, 50 μL of the solution were taken out as the 0 minute sample, and 50 μL of the remaining sample were taken out after incubating at 37° C. for 30 minutes. All the samples taken out were immediately processed to precipitate protein, and centrifuged to obtain a supernate for the determination of the compound concentration by LC/MS/MS.

[9] = Stability in human liver microsome; details: 2 μM, 37° C., 30 minutes
Method: as §4, §5

[10] = Stability in plasma, overall conclusion (species not stated); details: conclusion in words
[11] = Pharmacokinetics assay in dog (nitroxoline concentration in plasma after single intravenous or oral administration); assay type: in vivo, beagle dog; details: for AUC0-inf: nitroxoline in beagle dog plasma
Text: Nitroxoline is mainly metabolized by the phase II metabolism in liver with a fast metabolism rate, so it has a short half-life in the body. The present invention modified its structure and 13 compounds of formula (I) were obtained through chemical synthesis. The change of nitroxoline concentration in dog plasma after a single intravenous or oral administration of nitroxoline and the compound of formula (I) was studied to evaluate the pharmacokinetic behavior of nitroxoline and the compound of formula (I) in dog body.
Male beagle dog (Beijing Marshall Biotechnology Co., Ltd., Certificate No.: SCXK (BJ) 2016-0001, Qualified number: 11400600001728), 3 dogs per group, weight 10 to 13 kg, 20 to 22 months old. The dogs were fasted overnight before the administration with free access to water, and fed 4 hours after the administration. The test compound was added to an EP tube, and then added with DMSO, solutol and sterilized water for injection (the volume ratio of the three was 1:2:17, v:v:v). The EP tube was subjected to ultrasound for 20 minutes to make the test compound dissolve well (compound concentration: 0.005 mmol/mL). The dose for intravenous administration was 0.01 mmol/kg, and the dose for oral administration was 0.1 mmol/kg. 0.3 ml of whole blood was collected from jugular vein before the administration (0 hour) and 0.0833, 0.25, 0.5, 1, 2, 4, 6, 8, 10 and 12 hours after the administration (sampling points can be adjusted according to the specific situation) respectively. The blood sample was placed in a centrifuge tube containing EDTA-K2 anticoagulant (Aldrich), and the centrifuge tube was left to stand in ice. The blood sample was centrifuged for 10 minutes at 1530 g within 0.5 hour to obtain all clean plasma. The plasma was placed in another clean centrifuge tube, and stored in a refrigerator at −20° C. for later use.
Solution for standard curve was formulated. 1000 μL of internal standard working solution (containing a solution of verapamil (5 ng/mL, Aldrich), glibenclamide (50 ng/mL, Aldrich) and diclofenac (50 ng/mL, Aldrich) in acetonitrile) was added to 10 μL of the solution for standard curve and sample, and the mixture was shaked by vortex for 5 minutes. The mixture was centrifuged for 10 minutes at 4° C., 3700 rpm. 60 μL of the supernatant were placed in an injection tube, and mixed with 120 μL of water. 10 μL of the solution were injected into the liquid chromatography-mass spectrometry system for determination. The pharmacokinetic parameters were calculated by the WinNonlin V 6.2 non-compartmental model.

[12] = aqueous buffer, phosphate buffer pH 7.4, room temperature

Row | Structure (SMILES) | solubility at 24 h [1, 12] [µg/mL] | Percentage of the compound remaining in mouse liver microsome ([2]; with coenzyme) [%] | Percentage of the compound remaining in mouse liver microsome ([2]; without coenzyme) [%] | Percentage of the compound remaining in plasma (Stability in dog plasma; 0 minute) [%] | Percentage of the compound remaining in plasma (Stability in dog plasma; 37° C., 15 minutes) [%] | Percentage of the compound remaining in plasma (Stability in dog plasma; 37° C., 30 minutes) [%] | Percentage of the compound remaining in plasma (Stability in dog plasma; 37° C., 60 minutes) [%] | Percentage of the compound remaining in plasma (Stability in dog plasma; 37° C., 120 minutes) [%] | Percentage of the compound remaining in plasma ([4]; 0 minute) [%] | Percentage of the compound remaining in plasma ([4]; 37° C., 15 minutes) [%] | Percentage of the compound remaining in plasma ([4]; 37° C., 30 minutes) [%] | Percentage of the compound remaining in plasma ([4]; 37° C., 60 minutes) [%] | Percentage of the compound remaining in plasma ([4]; 37° C., 120 minutes) [%] | Percentage of the compound remaining in plasma (Stability in rat plasma; 0 minute) [%] | Percentage of the compound remaining in plasma (Stability in rat plasma; 37° C., 15 minutes) [%] | Percentage of the compound remaining in plasma (Stability in rat plasma; 37° C., 30 minutes) [%] | Percentage of the compound remaining in plasma (Stability in rat plasma; 37° C., 60 minutes) [%] | Percentage of the compound remaining in plasma (Stability in rat plasma; 37° C., 120 minutes) [%] | Percentage of the compound remaining in plasma ([6]; 0 minute) [%] | Percentage of the compound remaining in plasma ([6]; 37° C., 15 minutes) [%] | other results
1 | CN1CCN(C(=O)OCOc2ccc([N+](=O)[O-])c3cccnc23)CC1 [Compound 6, (5-nitroquinolin-8-yloxy)methyl 4-methylpiperazine-1-carboxylate] | 985 (≈ 2840 µM) | 51.08 | 116.52 | 100.0 | 111.5 | 111.9 | 114.6 | 105.9 | 100.0 | 98.3 | 101.1 | 91.6 | 98.9 | 100.0 | 95.5 | 98.8 | 90.2 | 89.4 | 100.0 | 97.5 | Percentage of the compound remaining in plasma ([3]; 0 minute): 100.0%; Percentage of the compound remaining in plasma ([3]; 37° C., 15 minutes): 97.7%; Percentage of the compound remaining in plasma ([3]; 37° C., 30 minutes): 95.4%; Percentage of the compound remaining in plasma ([3]; 37° C., 60 minutes): 98.9%; Percentage of the compound remaining in plasma ([3]; 37° C., 120 minutes): 92.1%; stability in microsome [5]: high stability; Percentage of the compound remaining in plasma ([6]; 37° C., 30 minutes): 106.0%; Percentage of the compound remaining in plasma ([6]; 37° C., 60 minutes): 95.0%; Percentage of the compound remaining in plasma ([6]; 37° C., 120 minutes): 99.3%; Percentage of the compound remaining in dog liver microsome ([7]; with coenzyme): 38.76%; Percentage of the compound remaining in dog liver microsome ([7]; without coenzyme): 114.53%; Percentage of the compound remaining in rat liver microsome ([8]; with coenzyme): 75.71%; Percentage of the compound remaining in rat liver microsome ([8]; without coenzyme): 99.73%; Percentage of the compound remaining in human liver microsome ([9]; with coenzyme): 109.46%; Percentage of the compound remaining in human liver microsome ([9]; without coenzyme): 118.37%; stability in plasma [10]: high stability
2 | CCC(CC)C(=O)OC(C)Oc1ccc([N+](=O)[O-])c2cccnc12 (centres unmarked) [Compound 51, 1-(5-nitroquinolin-8-yloxy)ethyl 2-ethylbutanoate] | 6.62 (≈ 19.9 µM) | 0.02 | 0.09 | 100.0 | 103.7 | 93.7 | 89.1 | 93.3 | 100.0 | 96.4 | 87.0 | 78.1 | 69.0 | 100.0 | 70.2 | 67.8 | 48.0 | 35.3 | 100.0 | 97.2 | solubility at 24 h ([1]; aqueous buffer, phosphate buffer pH 4.5, room temperature): 7.07 µg/mL (≈ 21.3 µM); solubility at 24 h ([1]; aqueous buffer, phosphate buffer pH 6.8, room temperature): 5.69 µg/mL (≈ 17.1 µM); solubility at 24 h ([1]; simulated gastric fluid, phosphate buffer pH 1.2, room temperature): 91.4 µg/mL (≈ 275 µM); absorption in beagle dogs compared with nitroxoline ([11]; conclusion in words): well absorbed; AUC0-inf ([11]; intravenous administration 0.01 mmol/kg): 1153 ng*hmL^−1; AUC0-inf ([11]; oral administration 0.1 mmol/kg): 2474 ng*hmL^−1; Percentage of the compound remaining in plasma ([6]; 37° C., 30 minutes): 98.0%; Percentage of the compound remaining in plasma ([6]; 37° C., 60 minutes): 94.1%; Percentage of the compound remaining in plasma ([6]; 37° C., 120 minutes): 84.6%; Percentage of the compound remaining in dog liver microsome ([7]; with coenzyme): 0.07%; Percentage of the compound remaining in dog liver microsome ([7]; without coenzyme): 0.28%; Percentage of the compound remaining in rat liver microsome ([8]; with coenzyme): 0.08%; Percentage of the compound remaining in rat liver microsome ([8]; without coenzyme): 2.92%; Percentage of the compound remaining in human liver microsome ([9]; with coenzyme): 0.06%; Percentage of the compound remaining in human liver microsome ([9]; without coenzyme): 0.25%
